Measured values: the supplement of paper PMC10307832

How the values were obtained:
Experiment in all cases: relative viability (nuclei count vs DMSO), 5 days (fraction); higher = more cells survive
Fedratinib + Alpelisib = compound: Cc1cnc(Nc2ccc(OCCN3CCCC3)cc2)nc1Nc1cccc(S(=O)(=O)NC(C)(C)C)c1 [Fedratinib] + Cc1nc(NC(=O)N2CCC[C@H]2C(N)=O)sc1-c1ccnc(C(C)(C)C(F)(F)F)c1 [Alpelisib] (partner 2 µM)
Outline: (§1)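 Relative viability equals treated-well nuclei counts divided by vehicle-well nuclei counts. Counts came from 4× images of lung cancer cell lines grown in 1536-well plates for 5 days after pin-tool dosing on the day after seeding. Dosing used one drug alone or a fixed anchor-drug dose plus five library-drug doses (not always all listed) in √10 steps, and values are medians of duplicate plates.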

GW-2580 + Palbociclib = compound: COC1=CC=C(C=C1)COC2=C(C=C(C=C2)CC3=CN=C(N=C3N)N)OC [GW-2580] + CC(=O)c1c(C)c2cnc(Nc3ccc(N4CCNCC4)cn3)nc2n(C2CCCC2)c1=O [Palbociclib] (partner 0.5 µM)
Outline: as §1

Fedratinib + Vorinostat = compound: Cc1cnc(Nc2ccc(OCCN3CCCC3)cc2)nc1Nc1cccc(S(=O)(=O)NC(C)(C)C)c1 [Fedratinib] + O=C(CCCCCCC(=O)Nc1ccccc1)NO [Vorinostat] (partner 1 µM)
Outline: as §1

Fedratinib + Lapatinib = compound: Cc1cnc(Nc2ccc(OCCN3CCCC3)cc2)nc1Nc1cccc(S(=O)(=O)NC(C)(C)C)c1 [Fedratinib] + CS(=O)(=O)CCNCc1ccc(-c2ccc3ncnc(Nc4ccc(OCc5cccc(F)c5)c(Cl)c4)c3c2)o1 [Lapatinib] (partner 2 µM)
Outline: as §1

Fedratinib + Decitabine = compound: Cc1cnc(Nc2ccc(OCCN3CCCC3)cc2)nc1Nc1cccc(S(=O)(=O)NC(C)(C)C)c1 [Fedratinib] + Nc1ncn([C@H]2C[C@H](O)[C@@H](CO)O2)c(=O)n1 [Decitabine] (partner 2 µM)
Outline: as §1

GW-2580 + Phenformin = compound: COC1=CC=C(C=C1)COC2=C(C=C(C=C2)CC3=CN=C(N=C3N)N)OC [GW-2580] + N=C(N)NC(=N)NCCc1ccccc1 [Phenformin] (partner 250 µM)
Outline: as §1

Cell Line | relative viability (Fedratinib + Alpelisib; first compound 0.1 µM) | relative viability (Fedratinib + Alpelisib; first compound 0.3162 µM) | relative viability (Fedratinib + Alpelisib; first compound 1 µM) | relative viability (GW-2580 + Palbociclib; first compound 0.08 µM) | relative viability (GW-2580 + Palbociclib; first compound 0.8 µM) | relative viability (GW-2580 + Palbociclib; first compound 2.53 µM) | relative viability (GW-2580 + Palbociclib; first compound 8 µM) | relative viability (Fedratinib + Vorinostat; first compound 0.1 µM) | relative viability (Fedratinib + Vorinostat; first compound 0.3162 µM) | relative viability (Fedratinib + Vorinostat; first compound 1 µM) | relative viability (Fedratinib + Lapatinib; first compound 0.1 µM) | relative viability (Fedratinib + Lapatinib; first compound 0.3162 µM) | relative viability (Fedratinib + Lapatinib; first compound 1 µM) | relative viability (Fedratinib + Decitabine; first compound 0.1 µM) | relative viability (Fedratinib + Decitabine; first compound 0.3162 µM) | relative viability (Fedratinib + Decitabine; first compound 1 µM) | relative viability (GW-2580 + Phenformin; first compound 0.08 µM) | relative viability (GW-2580 + Phenformin; first compound 0.8 µM) | relative viability (GW-2580 + Phenformin; first compound 2.53 µM) | relative viability (GW-2580 + Phenformin; first compound 8 µM)
NCI-H1975 | 0.613 | 0.692 | 0.467 | 0.738 | 0.944 | 0.524 | 0.586 | 0.744 | 0.702 | 0.603 | 1.02 | 0.922 | 0.163 | 0.372 | 0.315 | 0.343 | 0.44 | 0.43 | 0.414 | 0.418
CAL-12T | 1.13 | 1.16 | 1.06 | 0.639 | 0.416 | 0.517 | 0.413 | 0.747 | 0.84 | 0.681 | 0.688 | 0.698 | 0.607 | – | – | – | 0.624 | 0.613 | 0.609 | 0.514
NCI-H1623 | – | – | – | – | – | – | – | – | – | – | – | – | – | – | – | – | 0.566 | 0.587 | 0.463 | 0.566
HCC-44 | 0.759 | 0.771 | 0.801 | 0.98 | 1.02 | 0.961 | 0.967 | 1.13 | 1.08 | 1.01 | 1.04 | 0.911 | 0.901 | 0.929 | 0.947 | 0.949 | 0.181 | 0.153 | 0.183 | 0.253
EKVX | 0.898 | 1.04 | 0.931 | 0.341 | 0.392 | 0.675 | 0.327 | 0.736 | 0.737 | 0.728 | 0.209 | 0.206 | 0.252 | 0.315 | 0.37 | 0.363 | 0.244 | 0.264 | 0.212 | 0.233
NCI-H1651 | 1.16 | 1.01 | 0.9 | 0.503 | 0.594 | 0.499 | 0.557 | 0.498 | 0.567 | 0.552 | 0.817 | 0.813 | 0.118 | 0.365 | 0.629 | 0.618 | 0.36 | 0.371 | 0.304 | 0.358
NCI-H1944 | 0.804 | 0.945 | 0.716 | 0.33 | 0.387 | 0.29 | 0.255 | 0.668 | 0.571 | 0.516 | 0.816 | 0.803 | 0.615 | 0.435 | 0.451 | 0.421 | 0.198 | 0.201 | 0.169 | 0.189
NCI-H1703 | 0.161 | 0.361 | 0.25 | – | – | – | – | – | – | – | 0.675 | 0.834 | 0.667 | – | – | – | – | – | – | –
Calu-6 | 0.915 | 0.906 | 0.801 | – | – | – | – | – | – | – | 1.29 | 1 | 0.945 | – | – | – | – | – | – | –
EBC-1 | 0.743 | 0.808 | 0.592 | – | – | – | – | – | – | – | 0.175 | 0.193 | 0.177 | – | – | – | – | – | – | –
SW 1573 | 0.813 | 0.867 | 0.703 | 0.439 | 0.38 | 0.397 | 0.408 | 0.744 | 0.701 | 0.413 | 1.13 | 1.15 | 1.01 | 0.524 | 0.577 | 0.105 | 0.334 | 0.383 | 0.401 | 0.4
A-427 | 1.07 | 0.949 | 0.959 | 0.521 | 0.534 | 0.52 | 0.529 | 0.873 | 0.792 | 0.781 | 1.06 | 0.984 | 0.591 | 0.596 | 0.561 | 0.524 | 0.407 | 0.258 | 0.303 | 0.269
NCI-H2347 | 1.04 | 1.04 | 1 | 0.382 | 0.453 | 0.451 | 0.426 | 0.533 | 0.494 | 0.587 | 1.03 | 0.998 | 0.882 | 0.637 | 0.631 | 0.647 | 0.423 | 0.482 | 0.241 | 0.47
NCI-H1355 | 0.731 | 0.853 | 0.832 | 0.407 | 0.439 | 0.337 | 0.322 | 0.688 | 0.622 | 0.596 | 0.734 | 1.04 | 0.962 | 0.344 | 0.353 | 0.356 | 0.426 | 0.496 | 0.347 | 0.397
NCI-H358 | 0.773 | 0.768 | 0.466 | 0.135 | 0.147 | 0.139 | 0.15 | 0.656 | 0.654 | 0.634 | 0.366 | 0.369 | 0.334 | 0.156 | 0.21 | 0.101 | 0.365 | 0.518 | 0.36 | 0.353
PC-3 [JPC-3] | 0.985 | 1.01 | 1.09 | 0.546 | 0.567 | 0.515 | 0.516 | 0.719 | 0.978 | 0.676 | 0.422 | 0.446 | 0.412 | 0.717 | 0.827 | 0.75 | 0.472 | 0.489 | 0.489 | 0.464
NCI-H2228 | 0.59 | 0.842 | 0.747 | 0.793 | 1.03 | 0.822 | 0.843 | 0.744 | 0.589 | 0.545 | 1.04 | 1.07 | 0.22 | – | – | – | 0.395 | 0.371 | 0.358 | 0.318
HOP-62 | 0.941 | 0.759 | 0.89 | 0.584 | 0.438 | 0.481 | 0.515 | 0.64 | 0.605 | 0.594 | 0.969 | 0.88 | 0.904 | 0.224 | 0.172 | 0.202 | 0.758 | 0.744 | 0.637 | 0.655
